Measured values reported in US8987449B2, “Medicine for treating ischemic brain injury and its sequelae, and preparation method thereof” (Haimin Lei, priority 2011, dated 2015).

What was measured:
[1] = test system: rat primary cortical neurons; assay: Proliferation of primary neuronal cells by MTT and morphology observation; assay type: cell-based; conditions: for MTT(A540), 24 h after the administration: normal neurons, control 0.7567 ± 0.1109
Method: SD pregnant rats: pregnant for 16-18 d, certificate number: SCXK (Jing) 2006-0009, provided by BeiJing Vital River Laboratories.
LQC-T4 (prepared by the method of example 5), the purity was ≧98%, determined by high performance liquid chromatography (HPLC), which met the requirement of the experiment. The powder was carefully sealed and preserved at 4° C. The prepared LQC-T4 was dissolved using dimethyl sulfoxide and made into […] storing liquid for use.
Referring to the document [HongQingtao, TangYipeng, Neurons of cerebral cortex of newborn rats in in vitro primary culture, Chinese Journal of Neuroanatomy, 1994, 10(3):259-262], the pregnant 16-18 d SD rat was executed by dislocation. The fetal rat was taken out in an aseptic environment, the meninges and blood steak were stripped, the cortex was separated and cut into 1 mm^3 tissue block (all carried out on ice). The tissue block was digested at 37[…] with 0.1% pancreatic enzyme-0.02% EDTA for 20 min. Digesting was stopped using DMEM containing fetal calf serum and the number of the cells was adjusted to 5×10^5 cells ml^−1. The resultant cells were inoculated into a 96 well plate treated by 0.001% polylysine and the plate was put in a 37° C. 5% CO2 incubation box to be cultured. The cultivation liquid was changed (totally) after 48 h and add adenine arabinoside was added (final concentration is 5 μM) to inhibit the excessive proliferation of non-neurons. The cultivation liquid was changed after 48 h with fresh cultivation liquid and culture was continued. And the cultivation liquid was changed every 3 days afterward.
The cultivation liquid was sucked away on the eighth day of neuron culture. DMEM culture-medium containing 0.15% DMSO was added to the blank group, while 60 μM, 30 μM, 15 μM LQC-T4, 60 μM tetramethylpyrazine and 60 μM vanillic acid were respectively added to the administration group. Ten parallel wells were set as a group. And they were put into a 37° C., 5% CO2 incubation box to continue culturing for 24 h.
5 mg/ml MTT 20 μl was added to each well at the time of 4 h before the experiment ended and the cultivation liquid was sucked away. DMSO 200 μl was added to each well. When the purple particles were completely dissolved, the enzyme-linked immune assay was used to measure the optical density at 540 nm.
The SAS 8.2 statistical software was used to carry out the one-way ANOVA variance analysis and the difference among the groups were compared by t-test.

[2] = test system: MCAO rats; assay: Beam walking test of MCAO rats; assay type: in vivo, rat; conditions: 0-6 points; for beam walking Evaluation (3 d): model group 1.47 ± 0.84; for beam walking Evaluation (7 d): model group 1.92 ± 2.02
From the text: 140 healthy SD male rats, weighing 280-300 g, provided by Beijing Vital River Laboratories, certificate No.: SCXK (Jing) 2002-2003. The method of [Koizumi J, Yoshida […]. Experimental studies of ischemia brain edema, I: A new experimental model of cerebral embolism in rats in which recirculation can be introduced in the ischemic area[J]. […] After the rats were anesthetized and the skin thereof was disinfected by ethanol. By cutting right in the middle of the neck, the right common carotid artery, internal carotid artery and external carotid artery were separated and the common carotid artery and external carotid artery were ligated. The internal carotid artery was clamped with a bulldog clamp. A cut was made at the crotch of the external carotid artery and the internal carotid artery followed by releasing the bulldog clamp. […] Next, the external carotid artery was ligated and the nylon wire was fixed. In sham operation group, the right common carotid artery, the external carotid artery and the internal carotid artery were only exposed and separated. The rats were routinely raised in different cages. 0.5 ml penicillin was continuously injected into every mouse for three days after the surgery. […] The rats getting 1-3 point were selected for the subsequent experiment. The MCAO rats having the same point were distributed randomly and averagely to each experimental group. […] Beam walking test was used to evaluate the motor coordination and the integration defect after the cerebral ischemia damage. […] There was a dark box attached to one end of the beam and the rats were stimulated by noise to walk through the beam into the dark box. […] The rats were trained before the ischemia for 5 days until all the rats can get 6 point. The third and the seventh days after administration was set as the observation time to carry out the test. The SPSS 11.0 software pack was used to carry out the statistical analysis of all the data. The comparison of the enumeration data was carried out with X^2 test P<0.05 had statistical meaning.

[3] = test system: rat cortex neurons after cerebral ischemia; assay: Brain histopathologic morphology after cerebral ischemia (HE staining of cortex); assay type: in vivo; conditions: MCAO rats, compared with model group
Method: The same as effect example 4
10% chloral hydrate (0.35 g/kg) was injected into the abdominal cavity of a rat to anesthetize thereof. The thoracic cavity was cut to expose the heart fully. It was intubated through left ventricle. Firstly, it was washed with 37[…] saline solution 300 ml and perfused with pre-cooled 4% paraformaldehyde phosphate buffer solution (pH 7.2). When the rat was adequately fixed and the body was stiff, the head was cut and the brain was taken rapidly. And the brain was dipped into 4% paraformaldehyde solution and fixed for 24 h. Next, it was put into tissue vacuum hydroextractor, was dehydrated with gradient ethanol, made transparent with xylene, and imbedded into paraffin. 3-5 examples were taken for each group. And then 3 mm-4 mm tissue block from chiasma opticum towards caudal end at coronal position was taken, wherein the thickness of brain slice was 3 μm.
The rat cortex damage after cerebral ischemia and the effect of the medicine were observed through HE staining.

[4] = test system: VEGF; assay: VEGF expression in the cortex infarction zone (immunohistochemistry SP two-step method); assay type: in vivo, rat; conditions: MCAO rats, vs model group
[5] = 60 mg/kg intragastrically once a day
[6] = 120 mg/kg intragastrically once a day

| Structure (SMILES) | MTT(A540), 24 h after the administration ([1]; 60 μM) | beam walking Evaluation (3 d) ([2]; 37 mg/kg once a day) | beam walking Evaluation (7 d) ([2]; 37 mg/kg once a day) | remaining of the complete neuron of the rat cortex after cerebral ischemia (HE staining) ([3]; TMP group) | VEGF expression in the rat cerebral infarction zone ([4]; TMP group) | MTT(A540), 24 h after the administration ([1]; 15 μM) | MTT(A540), 24 h after the administration ([1]; 30 μM) | promoting effect on the growth of normal neurons ([1]; 24 h after the administration, P>0.05, result in words) | morphology observation of primary neuronal cells ([1]; phase contrast microscope, vs normal group) | beam walking Evaluation (3 d) [2, 5] | beam walking Evaluation (7 d) [2, 5] | beam walking Evaluation (3 d) [2, 6] | beam walking Evaluation (7 d) [2, 6] | remaining of the complete neuron of the rat cortex after cerebral ischemia (HE staining) ([3]; 60 mg/kg) | remaining of the complete neuron of the rat cortex after cerebral ischemia (HE staining) ([3]; 120 mg/kg) | VEGF expression in the rat cerebral infarction zone ([4]; 60 mg/kg small dosage group) | VEGF expression in the rat cerebral infarction zone ([4]; 120 mg/kg large dosage group) | beam walking Evaluation (3 d) ([2]; 30 mg/kg once a day) | beam walking Evaluation (7 d) ([2]; 30 mg/kg once a day) |
| --- | --- | --- | --- | --- | --- | --- | --- | --- | --- | --- | --- | --- | --- | --- | --- | --- | --- | --- | --- |
| Cc1nc(C)c(C)nc1C [TMP, tetramethylpyrazine, reference compound] | 0.8710 ± 0.1350 | 2.86 ± 1.79 | 2.40 ± 2.32 | a lower level of damage compared with the model group | more than that of the model group |  |  |  |  |  |  |  |  |  |  |  |  |  |  |
| COc1cc(C(=O)OCc2nc(C)c(C)nc2C)ccc1OCc1nc(C)c(C)nc1C [LQC-T4, (3,5,6-trimethylpyrazine-2-yl)methyl 3-methoxy-4-((3,5,6-trimethylpyrazine-2-yl)methoxy) benzoate] | 0.8106 ± 0.2415 |  |  |  |  | 0.9175 ± 0.2300 | 0.9114 ± 0.1599 | greater than that of the tetramethylpyrazine group and the vanillic acid group | more prosperous in growth and their protrusions formed a network | 3.6 ± 1.76 | 3.83 ± 1.70 | 2.88 ± 1.62 | 3.20 ± 1.66 | a larger amount of neurons which were distinct and complete in structure | a larger amount of neurons which were distinct and complete in structure | more than that of the model group | more than that of the model group |  |  |
| COCCOC(=O)C1=C(C)NC(C)=C(C(=O)OC(C)C)C1c1cccc([N+](=O)[O-])c1 (centres unmarked) [Nimodipine, reference compound] |  |  |  |  |  |  |  |  |  |  |  |  |  |  |  |  |  | 2.71 ± 1.49 | 3.50 ± 1.71 |
